The values that follow come from patent publication US20170150719A1, “FUNGICIDAL PYRAZOLES AND THEIR MIXTURES” (E I DU PONT DE NEMOURS AND COMPANY, priority 2010, published 2017).

Each structure is given as a SMILES string.

Experiment [1] deals with Puccinia recondita f. sp. tritici. As to the kind of experiment: Test G: wheat leaf rust, spray after inoculation (curative) on wheat seedlings, visual disease rating. Conditions: 100 = 100% disease control; for Test G rating (disease control) / pest or weed control at 200 µg/mL: sprayed after inoculation, 0 = no disease control; for Test G rating (% disease control): spray after inoculation, rating without asterisk. The class given is in vivo. An excerpt: (§1) A hyphen (-) indicates no test results.

The test system is the same in experiment [2]. Briefly: Test H: wheat leaf rust, preventive spray on wheat seedlings, visual disease rating. Conditions: 100 = 100% disease control; for Test H rating (disease control) / Test H rating (% disease control): wheat leaf rust; for Test H rating (disease control): sprayed the day before inoculation; for Test H rating (disease control) / pest or weed control at 200 µg/mL: 0 = no disease control; for Test H rating (% disease control): preventive spray, rating without asterisk; for pest or weed control at 200 µg/mL: read-out: Test H rating (disease control), wheat leaf rust, sprayed the day before inoculation.

For a further experiment, the system named is Botrytis cinerea. As to the kind of experiment: Test A: tomato Botrytis, preventive spray on tomato seedlings, visual disease rating. The settings on record: 100 = 100% disease control; for Test A rating (disease control) / pest or weed control at 200 µg/mL: 0 = no disease control relative to the controls; for pest or weed control at 200 µg/mL: Botrytis cinerea, in Solanum lycopersicum, read-out: Test A rating (disease control), tomato Botrytis.

Another experiment has as its system Alternaria solani. As to the kind of experiment: Test B: tomato early blight, preventive spray on tomato seedlings, visual disease rating. The settings on record: for Test B rating (disease control) / Test B rating (% disease control): tomato early blight, 100 = 100% disease control; for Test B rating (disease control): 0 = no disease control relative to the controls; for Test B rating (% disease control): preventive spray, rating without asterisk; for pest or weed control at 200 µg/mL: Alternaria solani, in Solanum lycopersicum, read-out: Test B rating (disease control).

Experiment [3] relates to Blumeria graminis f. sp. tritici. As to the kind of experiment: Test I: wheat powdery mildew, preventive spray on wheat seedlings, visual disease rating. Conditions: 100 = 100% disease control; for Test I rating (disease control) / Test I rating (% disease control): wheat powdery mildew; for Test I rating (disease control) / pest or weed control at 200 µg/mL: 0 = no disease control relative to the controls; for Test I rating (% disease control): preventive spray, rating without asterisk; for pest or weed control at 200 µg/mL: Blumeria graminis, in Triticum aestivum, read-out: Test I rating (disease control), wheat powdery mildew.

The test system of a further experiment is Septoria nodorum. Briefly: Test E: Septoria glume blotch, preventive spray on wheat seedlings, visual disease rating. The settings on record: 100 = 100% disease control; for Test E rating (disease control): Septoria glume blotch; for Test E rating (disease control) / pest or weed control at 200 µg/mL: 0 = no disease control relative to the controls; for Test E rating (% disease control): Septoria glume blotch on wheat, preventive spray, rating without asterisk; for pest or weed control at 200 µg/mL: Parastagonospora nodorum, in Triticum aestivum, read-out: Test E rating (disease control), Septoria glume blotch.

The subject of the next experiment is Septoria tritici. As to the kind of experiment: Test F: wheat leaf blotch, preventive spray on wheat seedlings, visual disease rating. The class given is in vivo. The settings on record: 100 = 100% disease control; for pest or weed control at 200 µg/mL: Zymoseptoria tritici, 0 = no disease control relative to the controls.
Text: as §1

Procedure for Alternaria solani: (§2) General protocol for preparing test suspensions for Tests A-I: the test compounds were first dissolved in acetone in an amount equal to 3% of the final volume and then suspended at the desired concentration (in ppm) in acetone and purified water (50/50 mix by volume) containing 250 ppm of the surfactant Trem® 014 (polyhydric alcohol esters). The resulting test suspensions were then used in Tests A-I. Each test was conducted in triplicate, and the results were averaged. Spraying a 200 ppm test suspension to the point of run-off on the test plants was the equivalent of a rate of about 800 g/ha. Unless otherwise indicated, the rating values indicate a 200 ppm test suspension was used. (An asterisk “*” next to the rating value indicates a 40 ppm test suspension was used.)
The test suspension was sprayed to the point of run-off on tomato seedlings. The following day the seedlings were inoculated with a spore suspension of Alternaria solani (the causal agent of tomato early blight) and incubated in a saturated atmosphere at 27° C. for 48 h, and then moved to a growth chamber at 20° C. for 5 days, after which time visual disease ratings were made.
Procedure for Septoria nodorum: as §2
The test suspension was sprayed to the point of run-off on wheat seedlings. The following day the seedlings were inoculated with a spore suspension of Septoria nodorum (the causal agent of Septoria glume blotch) and incubated in a saturated atmosphere at 24° C. for 48 h, and then moved to a growth chamber at 20° C. for 9 days, after which time visual disease ratings were made.

In the case of `Cc1nn(C)c(C(O)c2ccc(Cl)cc2F)c1-c1ccc(F)cc1Cl` (racemic) [compound 177], the “Test G rating (disease control)” value in experiment [1] turned out to be 0%. In addition, the “Test H rating (disease control)” value in experiment [2] is reported as 0%. For the same compound, the “Test A rating (disease control)” value in the experiment on Botrytis cinerea (tomato Botrytis) was 99%. Also, the “Test B rating (disease control)” value with Alternaria solani stood at 0%. The “Test I rating (disease control)” value in experiment [3] is 48%. Further, in the experiment with Septoria nodorum, the “Test E rating (disease control)” value was found to be 0%.
Turning to `Cc1nn(C)c(C(O)c2c(F)cc(F)cc2F)c1-c1ccc(F)cc1Cl` (racemic) [compound 178], the “Test G rating (disease control)” value in experiment [1] is recorded as 98%. Further, the “Test H rating (disease control)” value in experiment [2] is listed as 100%. The “Test A rating (disease control)” value with Botrytis cinerea (tomato Botrytis) turned out to be 100%. For the same compound, in the experiment on Alternaria solani, the “Test B rating (disease control)” value is reported as 33%. Further, in experiment [3], the “Test I rating (disease control)” value is on record as 74%. In addition, the “Test E rating (disease control)” value with Septoria nodorum is reported as 0%.
Consider `Cc1nn(C)c(C(O)c2ccc(C#N)cc2F)c1-c1ccc(F)cc1Cl` (racemic) [compound 179], for which the “Test G rating (% disease control)” value in experiment [1] was 9%. Also, in experiment [2], the “Test H rating (% disease control)” value is 99%. The “Test A rating (% disease control)” value with Botrytis cinerea (tomato Botrytis, preventive spray, 0 = no control relative to controls, rating without asterisk) was 96%. In addition, the “Test B rating (% disease control)” value in the experiment with Alternaria solani came out at 16%. Besides, the “Test I rating (% disease control)” value in experiment [3] was 0%. In addition, the “Test E rating (% disease control)” value in the experiment on Septoria nodorum turned out to be 0%.
Take `COc1ccc(-c2c(C)nn(C)c2C(O)c2c(F)cc(Cl)cc2F)c(Cl)c1` (racemic) [compound 224]: the “Test F rating (% disease control)” value with Septoria tritici (preventive spray, rating without asterisk) is listed as 100%. Also, in experiment [1], the “Test G rating (% disease control)” value was determined as 54%. For the same compound, the “Test H rating (% disease control)” value in experiment [2] worked out at 100%. Also, in the experiment on Alternaria solani, the “Test B rating (% disease control)” value was found to be 100%. Moreover, in experiment [3], the “Test I rating (% disease control)” value is reported as 94%. Also, the “Test E rating (% disease control)” value in the experiment with Septoria nodorum was 89%.
Turning to `COc1cc(F)c(Nc2c(-c3ccc(F)cc3Cl)c(C)nn2C)c(F)c1` [Compound 3, 4-(2-chloro-4-fluorophenyl)-N-(2,6-difluoro-4-methoxyphenyl)-1,3-dimethyl-1H-pyrazol-5-amine], the pest or weed control at 200 µg/mL in the experiment with Septoria tritici was determined as 97%; in experiment [1], 96%; in experiment [2] it was 100%; in the experiment with Botrytis cinerea, 100%; in the experiment on Alternaria solani, 100%; in experiment [3], 100%. Moreover, the pest or weed control at 200 µg/mL in the experiment with Septoria nodorum was 93%.
For the compound `Cc1nn(C)c(Nc2c(F)cc(F)cc2F)c1-c1ccc(F)cc1Cl` [Compound 4, 4-(2-chloro-4-fluorophenyl)-1,3-dimethyl-N-(2,4,6-trifluorophenyl)-1H-pyrazol-5-amine], the pest or weed control at 200 µg/mL in the experiment with Septoria tritici turned out to be 95%; in experiment [1], 99%; in experiment [2], 100%; with Botrytis cinerea, 99%; in the experiment on Alternaria solani, 100%; in experiment [3], 100%. Also, the pest or weed control at 200 µg/mL in the experiment on Septoria nodorum worked out at 99%.
As for `COc1cc(F)c(-c2c(C)nn(C)c2Nc2ccc(F)cc2F)c(F)c1` [Compound 6, 4-(2,6-difluoro-4-methoxyphenyl)-N-(2,4-difluorophenyl)-1,3-dimethyl-1H-pyrazol-5-amine], the pest or weed control at 200 µg/mL in the experiment with Septoria tritici is 93%; in experiment [1] it was 92%; in experiment [2], 100%; with Botrytis cinerea it was 98%; with Alternaria solani it was 100%; in experiment [3], 100%. Moreover, the pest or weed control at 200 µg/mL in the experiment with Septoria nodorum came out at 99%.
